Experimental data from paper PMC5075052, “Modulation of the Substitution Pattern of 5-Aryl-2-Aminoimidazoles Allows Fine-Tuning of Their Antibiofilm Activity Spectrum and Toxicity” (Antimicrobial Agents and Chemotherapy, 2016).

Experiments:
osteoblasts (OB) [1] = assay: Osteogenic differentiation, calcium and DNA assay; type: cell-based, human; conditions: 12.5 μM; for calcium deposition of OB (normalized by DNA): osteogenic medium, versus solvent control
Protocol: (§1) The effects of the substances on the osteogenic differentiation potential were assessed as previously described ([76]). Only the substances that allowed survival of the cells for more than 3 weeks, which is the time needed for mature osteogenic differentiation, were tested. Briefly, osteoblasts and bone marrow-derived mesenchymal stem cells were cultured in a positive solvent control (osteogenic medium with 0.5% DMSO or ethanol background), a negative control (medium without osteogenic supplements), and treated samples (osteogenic medium, 0.5% DMSO or ethanol background, and 12.5 μM test compound) with four repeats per condition. The cells in the mesenchymal stem cell and osteoblast cultures were harvested after 3 or 5 weeks, respectively, for the calcium and DNA assay.
(§2) The calcium deposition of osteoblasts and mesenchymal stem cells was measured with the calcium CPC LiquiColor test (Stanbio Laboratory, Boerne, TX) as previously described ([76]). Briefly, cell cultures were extracted with 5% trichloroacetic acid (500 μl per sample), o-cresolphthalein complex was added, and the calcium content was determined spectrophotometrically at 550 nm. The DNA content was determined as previously described ([76]). DNA values were used to normalize the calcium content. Four wells per condition were examined, and two samples from each well were taken for each assay.

[2] = test system: bone marrow-derived mesenchymal stem cells (MSC); assay: Osteogenic differentiation, calcium and DNA assay; type: cell-based, human; conditions: 12.5 μM; for calcium deposition of MSC (normalized by DNA): osteogenic medium, versus solvent control
Protocol: as §1, §2

osteoblasts (OB) [3] = assay: Metabolic activity, MTT staining; type: cell-based; conditions: 12.5 μM, 6 days of treatment
Protocol: (§3) The viability of two human primary cell types, namely, osteoblasts (OB) and bone marrow-derived mesenchymal stem cells (MSC), was tested according to the ISO 10993-5 standard, as previously described ([76]). Briefly, cells were seeded in 96-well tissue culture test plates (TPP; Trasadingen, Switzerland) at 5 × 10^3 cells/cm^2 in cell culture medium (advanced Dulbecco modified Eagle's medium [DMEM]) supplemented with 10% serum, 1× GlutaMAX, and 0.05 mg/ml gentamicin and were allowed to attach overnight. On the next day, the cells were exposed to (i) cell culture medium and medium with the corresponding control (0.5% ethanol or DMSO; negative controls), (ii) medium with 0.05% phenol (cytotoxic control), and (iii) medium with compounds (12.5 μM) and incubated for 2 h, 48 h, and 6 days (8 repeats for each condition). At each time point, the numbers of viable and dead cells were determined directly by trypan blue staining and indirectly by measuring metabolic activity with 3-(4,5-dimethylthiazol-2-yl)-2,5-diphenyltetrazolium bromide (MTT) staining.
(§4) The medium was removed from the wells, and 100 μl of medium supplemented with 10% serum and 0.5 mg/ml MTT was added to the cells. The cells were incubated overnight at 37°C in 5% CO2. On the next day, the medium with MTT was removed and 100 μl acidic isopropanol was added. The cells were then centrifuged at 2,300 × g, and 50 μl of the supernatant was transferred to a new 96-well plate. The absorbance at 570 nm was measured, and the background at 660 nm was measured. Four wells per condition were examined.

[4] = test system: bone marrow-derived mesenchymal stem cells (MSC); assay: Metabolic activity, MTT staining; type: cell-based; conditions: 12.5 μM, 6 days of treatment
Protocol: as §3, §4

[5] = test system: bone marrow-derived mesenchymal stem cells (MSC); assay: Mammalian cell viability assay, trypan blue staining; type: cell-based; conditions: 12.5 μM, 6 days of exposure
Protocol: as §3
The medium was removed from the wells, 1/3 trypan blue in DMEM was added to the cells, and the cells were incubated for 3 min, after which the trypan blue was removed and DMEM was added to the wells. In each of four wells, two microscopy fields were counted for viable (transparent) and dead (blue) cells.

[6] = test system: C. albicans SC5314 + E. coli MG1655; assay: Mixed C. albicans-E. coli biofilm, selective plating CFU; type: cell-based, Candida albicans + Escherichia coli; conditions: 37°C
Protocol: Overnight cultures of C. albicans SC5314 (YPD) and E. coli MG1655 (TSB) were washed three times with PBS, after which they were diluted in RPMI 1640 medium to OD600s of 1 and 0.01, respectively. Equal volumes of these cell suspensions were mixed, and 100 μl of this mixed cell suspension together with compound was added to the wells of a microtiter plate in triplicate. Concentrations of 25 μM (0.0625% DMSO or ethanol) and 100 μM (0.25% DMSO or ethanol) were tested. After 24 h of incubation at 37°C, the medium was removed and the biofilm was washed with PBS. Next, the cells were resuspended in 100 μl of PBS by scraping them off, sonicated (1 min, 45 kHz; USC300-T; VWR, Radnor, PA, USA), and vigorously pipetted up and down. Finally, dilution series were made, and quantification of the E. coli MG1655 and C. albicans SC5314 populations was performed using selective plating on tryptic soy agar (TSA) plates containing 25 mg/liter amphotericin B and YPD plates containing 100 μg/ml tetracycline, respectively. The percentage of C. albicans SC5314 and E. coli MG1655 cells relative to the number of cells after DMSO or ethanol control treatment was determined.

[7] = test system: eukaryotic tumor cell lines, bone cells, and the nematode Caenorhabditis elegans; design: method as in PMID 25325155; conditions: C. elegans; cited from earlier work
[8] = test system: C. albicans SC5314 + S. aureus SH1000; assay: Mixed C. albicans-S. aureus biofilm, selective plating CFU; type: cell-based, Candida albicans + Staphylococcus aureus; conditions: 37°C
Protocol: Overnight cultures of C. albicans SC5314 (YPD, 30°C) and S. aureus SH1000 (LB, 37°C) were washed with PBS, after which they were diluted in RPMI 1640 medium to obtain cell suspensions of 10^6 cells/ml for fungal cells and 10^8 cells/ml for bacteria. Equal volumes of these cell suspensions were mixed, and 100 μl of this mixed cell suspension together with compound was added to the wells of a microtiter plate in triplicate. Concentrations of 25 μM (0.0625% DMSO or ethanol) and 100 μM (0.25% DMSO or ethanol) were tested. The plates were incubated at 37°C for 90 min. After incubation, the wells were washed twice with PBS, and 200 μl of fresh RPMI 1640 medium with or without compounds was added in triplicate to the wells. After 24 h of incubation at 37°C, the medium was removed and the biofilm was washed with PBS. Next, the cells were resuspended in 100 μl of PBS by scraping them off, sonicated (1 min, 45 kHz; USC300-T; VWR, Radnor, PA, USA), and vigorously pipetted up and down. Finally, dilution series were made, and quantification of the S. aureus SH1000 and C. albicans SC5314 populations was performed using selective plating on TSA plates containing 25 mg/liter amphotericin B and YPD plates containing 100 μg/ml tetracycline, respectively. The percentage of C. albicans SC5314 and S. aureus SH1000 cells relative to the number of cells after DMSO or ethanol control treatment was determined.

[9] = 25 μM compound, relative to solvent control

metabolic activity of OB (MTT) compared to solvent control (osteoblasts (OB) [3]) | metabolic activity of MSC (MTT) compared to solvent control [4] | SMILES | survival of OB allowed (osteoblasts (OB) [1]) | calcium deposition of OB (normalized by DNA) (osteoblasts (OB) [1]) | survival of MSC allowed [2] | calcium deposition of MSC (normalized by DNA) [2] | proliferation of MSC (trypan blue) [5] | further results
increased | increased | CCCCCCCCn1c(-c2ccc(Cl)c(Cl)c2)cnc1NCC(C)C [Compound 8d] | more than 3 weeks | none of the compounds at 12.5 μM negatively affected the calcium deposition | more than 3 weeks | none of the compounds at 12.5 μM negatively affected the calcium deposition | increase in proliferation | 
increased | increased | CCCCCCCCn1c(-c2ccc(Cl)c(Cl)c2)cnc1NC1CCCC1 [Compound 8h] | more than 3 weeks | induced | more than 3 weeks | induced |  | 
 |  | CCCCCCCCn1c(-c2ccc(Cl)cc2)cnc1NC1CCCC1 [Compound 8f] |  |  |  |  | slightly reduced | 
 |  | CCCCCCCCn1c(-c2ccc(Cl)cc2)cnc1N [Compound 2] |  |  |  |  |  | % CFU survival, E. coli ([6]; 25 μM compound): 158.6%; % CFU survival, C. albicans [6, 9]: 104.9%; % CFU survival, C. albicans ([6]; 100 μM compound): 0.0%; % CFU survival, E. coli ([6]; 100 μM compound): 0.1%; toxicity (previously reported) [7]: strong toxicity; % CFU survival, C. albicans ([8]; 25 μM compound): 183.8%; % CFU survival, S. aureus ([8]; 25 μM compound): 87.7%; % CFU survival, C. albicans ([8]; 100 μM compound): 0.9%; % CFU survival, S. aureus ([8]; 100 μM compound): 0.2%
increased | increased | CCCCCCCCn1c(-c2ccc(Br)cc2)cnc1NCC(C)C [Compound 8c] | more than 3 weeks | induced | more than 3 weeks | induced |  | 
 |  | Brc1ccc(-c2cnc(NCCn3cc(C4CC4)nn3)[nH]2)cc1 [Compound 6] |  |  |  |  |  | toxicity (previously reported) [7]: higher level of toxicity
 |  | Clc1ccc(-c2cnc(NC3CCCC3)[nH]2)cc1 [Compound 5] |  |  |  |  |  | % CFU survival, E. coli ([6]; 25 μM compound): 100.6%; % CFU survival, C. albicans [6, 9]: 100.8%; % CFU survival, C. albicans ([6]; 100 μM compound): 38.3%; % CFU survival, E. coli ([6]; 100 μM compound): 105.6%; % CFU survival, C. albicans ([8]; 25 μM compound): 232.4%; % CFU survival, S. aureus ([8]; 25 μM compound): 75.4%; % CFU survival, C. albicans ([8]; 100 μM compound): 120.6%; % CFU survival, S. aureus ([8]; 100 μM compound): 74.5%
increased | increased | CCCCCCCCn1c(-c2ccc(Br)cc2)cnc1NC1CCCC1 [Compound 8g] | more than 3 weeks | induced | more than 3 weeks | induced | slightly reduced | 
 |  | CCCCCCCCn1c(-c2ccccc2)cnc1NC1CCCC1 [Compound 8e] |  |  |  |  | slightly reduced | 
 |  | CC(C)CNc1ncc(-c2ccc(Cl)cc2)[nH]1 [Compound 3] |  |  |  |  |  | % CFU survival, E. coli ([6]; 25 μM compound): 138.5%; % CFU survival, C. albicans [6, 9]: 143.4%; % CFU survival, C. albicans ([6]; 100 μM compound): 59.6%; % CFU survival, E. coli ([6]; 100 μM compound): 63.0%; % CFU survival, C. albicans ([8]; 25 μM compound): 165.7%; % CFU survival, S. aureus ([8]; 25 μM compound): 124.6%; % CFU survival, C. albicans ([8]; 100 μM compound): 141.3%; % CFU survival, S. aureus ([8]; 100 μM compound): 51.8%
 |  | CCCCCCCCn1c(-c2ccc(Cl)cc2)cnc1NCC(C)C [Compound 8b] | more than 3 weeks | induced | more than 3 weeks | induced |  | 
 |  | CCCCCCCCn1c(-c2ccccc2)cnc1NCC(C)C [Compound 8a] |  |  |  |  | slightly reduced | 
